Values belong to the compound of their own block, whether it stands above or below them.
Experiments:
Format in all cases: binding
[1] = target: T1, cypin (cytosolic PSD-95 interactor; guanine deaminase) (Rattus norvegicus, UniProt Q9WTT6); experiment: intrinsic tryptophan fluorescence quenching; also NADH-coupled assay (Km […]) and LC-MS of deaminated product
T1 construct: gene Gda
T1 sequence (Q9WTT6 1-454): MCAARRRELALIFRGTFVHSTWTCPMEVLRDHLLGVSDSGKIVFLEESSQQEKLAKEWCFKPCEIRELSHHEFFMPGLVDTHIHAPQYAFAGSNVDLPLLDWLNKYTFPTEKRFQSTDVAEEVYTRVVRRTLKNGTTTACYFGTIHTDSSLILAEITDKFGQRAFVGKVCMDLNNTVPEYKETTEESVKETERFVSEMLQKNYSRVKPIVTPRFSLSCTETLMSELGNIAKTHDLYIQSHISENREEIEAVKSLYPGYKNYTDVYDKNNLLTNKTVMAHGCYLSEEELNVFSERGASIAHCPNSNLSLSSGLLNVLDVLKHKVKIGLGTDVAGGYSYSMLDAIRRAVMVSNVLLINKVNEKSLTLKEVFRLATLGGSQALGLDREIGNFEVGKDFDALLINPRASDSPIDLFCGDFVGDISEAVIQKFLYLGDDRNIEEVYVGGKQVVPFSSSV

[2] = target: T1, cypin (cytosolic PSD-95 interactor; guanine deaminase); experiment: intrinsic tryptophan fluorescence quenching (Hill fit); also Amplex Red coupled xanthine oxidase/uricase assay
[3] = target: T1, cypin (cytosolic PSD-95 interactor; guanine deaminase); experiment: intrinsic tryptophan fluorescence quenching; also NADH-coupled deaminase assay (Km […])

Kd [1]: 74.4 µM
Compound: CC(C)[C@H](N)C(=O)OCCOCn1cnc2c(=O)[nH]c(N)nc21 [valacyclovir]

Kd [2]: 227 µM
Compound: Nc1nc2c(ncn2COCCO)c(=O)[nH]1 [acyclovir]

Compound: Nc1nc2nc[nH]c2c(=O)[nH]1 [guanine]
Kd [3]: 598 nM

— publication PMC11694556 (Proteins, 2024)
